Measured values reported in patent US20210171576A1, “METHODS FOR TREATING CANCER WITH ACYLDEPSIPEPTIDE ANALOGS” (priority 2018, published 2021).
Where a SMILES comes first, the peptide text is derived from it. Bridges are numbered along the chain shown (N, C = ends). [ ]: non-standard residue; d: D form. The star is where a group is joined. Octatrienoyl(2E,4E,6E) = C/C=C/C=C/C=C/C(=O)*; Phe(3,5-F2) = N[C@@H](Cc1cc(F)cc(F)c1)C(=O)O; Pip(4S-Me) = C[C@H]1CCN[C@H](C(=O)O)C1; 2Nal = N[C@@H](Cc1ccc2ccccc2c1)C(=O)O; Pro(4R-Me) = C[C@H]1CN[C@H](C(=O)O)C1; Bta = N[C@@H](Cc1csc2ccccc12)C(=O)O; Heptenoyl(2E) = CCCC/C=C/C(=O)*; Cha = N[C@@H](CC1CCCCC1)C(=O)O; aThr = C[C@H](O)[C@H](N)C(=O)O; Pip = O=C(O)[C@@H]1CCCCN1; NMeA = CN[C@@H](C)C(=O)O; Abu = CC[C@H](N)C(=O)O; Cbz = O=C(OCc1ccccc1)*; Boc = CC(C)(C)OC(=O)*; X4 = CCCCC/C=C/C(=O)*

Tests used:
[1] = target: T1, human mitochondrial CIpP (HsCIpP) (Homo sapiens, UniProt Q16740); experiment: Screen of ADEP analogs against HsCIpP: relative degradation (RD) index, casein-FITC degradation relative to E. coli CIpAP; type: biochemical; design: key: casein-FITC degradation by HsClpP relative to EcClpAP; details: for Hs RD1: RD value at 1 μM of the ADEP analog; for Hs RD5: RD value at 5 μM of the ADEP analog; for Hs RD25: RD value at 25 μM of the ADEP analog, measure of ability to activate HsCIpP
T1 construct: made in house; host or cells: E. coli SG1146 (BL21(DE3) ΔclpP::cat)
Excerpt: Structural analogs of acyldepsipeptide (ADEP) (Goodreid et al., 2016) that were previously developed as potential antibiotics against bacterial CIpP were screened and assessed for their ability to activate and dysregulate the protease activity of HsCIpP, by measuring their relative degradation (RD) index. Note that ADEP-28 was also previously reported by Carney et al. (2014). Details of the experimental protocol have been described in Leung et al., 2011. The RD index is defined as follows: […]
Δφ is the change in fluorescence after 6 hr of starting the reaction measured using 485 nm excitation and 535 nm emission, which primarily detects the signal from casein-FITC. E. coli CIpAP was used as a benchmark for maximum CIpP proteolytic activity. The CIpP in the numerator can be from any other organism. RD25 measurements refer to the measurement in the presence of 25 μM compound. All ADEP analogs were first screened at 25 μM, and their RD25 scores were calculated using the above formula and method as described in Leung et al., 2011 (FIG. 1A). Those that achieved RD25≥0.87 were screened a second time at 5 μM, followed by calculation of their RD5 scores. The top analogs with RD5≥0.74 were screened a third time at 1 μM, followed by calculation of their RD1 scores (FIG. 1B).
To identify ADEP analogs that allow HsCIpP to degrade folded proteins independent of HsCIpX+ATP (i.e., that activate or dysregulate HsCIpP), the inventors employed the in vitro screening method that was used for identifying small molecule activators of Escherichia coli CIpP (EcCIpP) (Leung et al., 2011). In this approach, the ability of HsCIpP to degrade FITC-labeled casein (casein-FITC) was measured and compared to the ability of EcCIpAP to degrade casein-FITC. This is quantitatively expressed as relative degradation (RD) index (Leung et al., 2011).

HsCIpP = target: T2, HsCIpP (Homo sapiens, UniProt Q16740, P57S); experiment: Casein-FITC degradation by HsCIpP with HsCIpX titrated; type: biochemical; details: HsCIpX titrated 0 to 18 μM, 3 μM HsCIpP
T2 construct: 2x(His6-thrombin)-SUMO (N, cleaved yes); made in house; host or cells: E. coli (SG1146 stated for HsClpP; 'a similar protocol' for HsClpX)
Experimental: The protease activity of purified HsCIpP was assessed by monitoring the degradation of bovine milk casein labelled with fluorescein isothiocyanate (casein-FITC) (Sigma-Aldrich) in the presence of ADEP and/or purified HsCIpX. All reactions were carried out in 25 mM HEPES, pH 7.5, 35 mM KCl, 25 mM MgCl2, 0.03% Tween-20, 10% glycerol, and 1 mM DTT, supplemented with 16 mM creatine phosphate and 300 μM ATP. HsCIpP was used at 3 μM (final monomeric concentration) and casein-FITC was added at the final concentration of 10 μM. 13 U of creatine phosphokinase (Sigma-Aldrich) was also added for ATP regeneration. DMSO was present at 1% (v:v) final concentration in the experiments that involve the use of ADEP analogs. All reactions were carried out with 150 μL of the reaction mix per well in a 96-well black flat-bottom plate at 37° C. Degradation of casein-FITC and subsequent release of the free FITC moiety was monitored by fluorescence with λex=494 nm and λem=518 nm using the EnSpire 2300 Multilabel Reader set to perform a reading every 40 s with 20 flashes. A total of 100 readings were collected in each experiment.
To investigate the casein-FITC degradation by HsCIpXP, kinetic analysis was performed with HsCIpP held constant at 3 μM (final monomeric concentration) and HsCIpX was titrated from 0 to 18 μM (final monomeric concentration). Initial rates (v0) were determined from data collected over three independent experiments. Non-linear regression analysis was then performed on the initial rates data using the Hill equation, as follows: […]
Vmax is maximal velocity, h is the Hill coefficient, and K0.5 is the microscopic apparent dissociation constant.

T1 sequence (Q16740 57-277): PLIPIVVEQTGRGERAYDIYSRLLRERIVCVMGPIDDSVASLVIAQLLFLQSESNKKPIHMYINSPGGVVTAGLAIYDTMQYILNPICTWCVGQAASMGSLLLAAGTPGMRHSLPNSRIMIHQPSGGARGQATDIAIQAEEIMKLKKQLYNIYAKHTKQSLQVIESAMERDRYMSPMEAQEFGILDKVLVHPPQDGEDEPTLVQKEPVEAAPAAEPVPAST
T2 sequence (Q16740 57-277 P57S): as the sequence (Q16740 57-277) above, with P1S counted along it

| Compound | Hs RD1 [1] | Hs RD5 [1] | Hs RD25 [1] | Hill coefficient (h) (HsCIpP) | Vmax (HsCIpP) [RFU.s^−1] | Kd (HsCIpP; read-out: K0.5) [µM] |
| --- | --- | --- | --- | --- | --- | --- |
| CCCC/C=C/C(=O)N[C@@H](Cc1cc(F)cc(F)c1)C(=O)N[C@H]1COC(=O)[C@@H]2C[C@@H](C)CN2C(=O)[C@H](CC)NC(=O)[C@@H]2CCCCN2C(=O)[C@@H]2CCCN2C1=O [ADEP-25] ({Heptenoyl(2E)}-[Phe(3,5-F2)]SP[Pip][Abu][Pro(4R-Me)]; ester 2-C) | 0.61 | 0.92 | 0.97 |  |  |  |
| CCCC/C=C/C(=O)N[C@@H](Cc1ccc2ccccc2c1)C(=O)N[C@H]1COC(=O)[C@@H]2C[C@@H](C)CN2C(=O)[C@H](C)NC(=O)[C@@H]2CCCCN2C(=O)[C@@H]2CCCN2C1=O [ADEP-43] ({Heptenoyl(2E)}-[2Nal]SP[Pip]A[Pro(4R-Me)]; ester 2-C) |  | 0.55 | 0.87 |  |  |  |
| CCCC/C=C/C(=O)N[C@@H](Cc1csc2ccccc12)C(=O)N[C@H]1COC(=O)[C@@H]2C[C@@H](C)CN2C(=O)[C@H](C)NC(=O)[C@@H]2CCCCN2C(=O)[C@@H]2CCCN2C1=O [ADEP-42] ({Heptenoyl(2E)}-[Bta]SP[Pip]A[Pro(4R-Me)]; ester 2-C) |  | 0.49 | 0.87 |  |  |  |
| CCCC/C=C/C(=O)N[C@@H](Cc1cc(F)cc(F)c1)C(=O)N[C@H]1COC(=O)[C@@H]2C[C@@H](C)CN2C(=O)[C@H](C)NC(=O)[C@@H]2C[C@@H](C)CCN2C(=O)[C@@H]2CCCN2C1=O [ADEP-30] ({Heptenoyl(2E)}-[Phe(3,5-F2)]SP[Pip(4S-Me)]A[Pro(4R-Me)]; ester 2-C) | 0.69 | 0.93 | 0.98 |  |  |  |
| CCCCC/C=C/C(=O)N[C@@H](Cc1ccccc1)C(=O)N[C@H]1COC(=O)[C@@H]2CCCN2C(=O)[C@H](C)NC(=O)[C@H](C)N(C)C(=O)[C@@H]2CCCN2C1=O [ADEP-18] (X4-FSP[NMeA]AP; ester 2-C) |  | 0.72 | 1.07 |  |  |  |
| C[C@@H]1C[C@H]2C(=O)OC[C@H](NC(=O)[C@H](Cc3ccccc3)NC(=O)OCc3ccccc3)C(=O)N3CCC[C@H]3C(=O)N(C)[C@@H](C)C(=O)N[C@@H](C)C(=O)N2C1 [ADEP-16] (Cbz-FSP[NMeA]A[Pro(4R-Me)]; ester 2-C) |  |  | 0.06 |  |  |  |
| C/C=C/C=C/C=C/C(=O)N[C@@H](Cc1ccccc1)C(=O)N[C@H]1COC(=O)[C@@H]2CCCN2C(=O)[C@H](C)NC(=O)[C@H](C)N(C)C(=O)[C@@H]2CCCN2C1=O [ADEP-08] ({Octatrienoyl(2E,4E,6E)}-FSP[NMeA]AP; ester 2-C) |  | 0.52 | 0.97 |  |  |  |
| CCCC/C=C/C(=O)N[C@H](Cc1ccccc1)C(=O)N[C@H]1COC(=O)[C@@H]2CCCN2C(=O)[C@H](C)NC(=O)[C@@H]2CCCCN2C(=O)[C@@H]2CCCN2C1=O [ADEP-02] | 0.52 | 0.88 | 1.08 |  |  |  |
| HsCIpX: the AAA+ ATPase HsCIpX, untagged human mitochondrial ClpX, partner of HsCIpP |  |  |  | 1.25 | 6.88 | 5.7 |
| CCCC/C=C/C(=O)N[C@@H](CC1CCCCC1)C(=O)N[C@H]1COC(=O)[C@@H]2C[C@@H](C)CN2C(=O)[C@H](C)NC(=O)[C@@H]2CCCCN2C(=O)[C@@H]2CCCN2C1=O [ADEP-21] ({Heptenoyl(2E)}-[Cha]SP[Pip]A[Pro(4R-Me)]; ester 2-C) |  | 0.70 | 1.00 |  |  |  |
| C[C@@H]1NC(=O)[C@H](C)N(C)C(=O)[C@@H]2CCCN2C(=O)[C@@H](NC(=O)[C@H](Cc2ccccc2)NC(=O)OC(C)(C)C)COC(=O)[C@@H]2CCCN2C1=O [ADEP-34] (Boc-FSP[NMeA]AP; ester 2-C) |  |  | 0.00 |  |  |  |
| CCCC/C=C/C(=O)N[C@@H](Cc1cc(F)cc(F)c1)C(=O)N[C@@H]1C(=O)N2CCC[C@H]2C(=O)N2CC[C@H](C)C[C@H]2C(=O)N[C@@H](C)C(=O)N2C[C@H](C)C[C@H]2C(=O)O[C@H]1C [ADEP-38] ({Heptenoyl(2E)}-[Phe(3,5-F2)][aThr]P[Pip(4S-Me)]A[Pro(4R-Me)]; ester 2-C) | 0.76 | 0.89 | 0.95 |  |  |  |
| C[C@@H]1C[C@H]2C(=O)OC[C@H](NC(=O)[C@H](Cc3ccccc3)NC(=O)OC(C)(C)C)C(=O)N3CCC[C@H]3C(=O)N(C)[C@@H](C)C(=O)N[C@@H](C)C(=O)N2C1 [ADEP-35] (Boc-FSP[NMeA]A[Pro(4R-Me)]; ester 2-C) |  |  | 0.00 |  |  |  |
